Reference: US11420970B1 (NOVARTIS AG, priority 2019, dated 2022)
Read-outs that look alike come from different tables or passages of the source.

Legend:
[1] = system: cellular H3K36me2 level in thyroid carcinoma cell line CGTH-W-1 (NSD2 E1099K); test: H3K36me2 cellular ELISA assay in CGTH-W-1 line; assay type: cell-based; details: Homo sapiens, CGTH-W-1, 72 h, read-out: H3K36me2 ELISA in CGTH-W-1
Procedure, shortened: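 CGTH-W-1 thyroid carcinoma cells (NSD2 E1099K gain-of-function) exposed to compound for 72 hours. Histone-bound plates probed for H3K36me2 and total H3 by chemiluminescent ELISA. Viability checked on a parallel plate with CellTiter-Glo.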

[2] = system: cellular H3K36me2 level in multiple myeloma cell line KMS11 (t(4;14)+); test: H3K36me2 cellular FRET assay in KMS11-Par line; assay type: cell-based; details: Homo sapiens, KMS-11, KMS11-Par line, FRET, read-out: H3K36me2 FRET in KMS11-Par
Protocol: H3K36Me2 Cellular FRET Assay in KMS11-Par Line
Fluorescence Resonance Energy Transfer (FRET) assay was used to test the ability of candidate compound to reduce cellular H3K36me2 level in multiple myeloma cell line KMS11 (t(4;14)+) (Horizon Discovery Ltd.).
Cells were treated with tested compounds at the desired concentration for 48 hours. […] Histone extract was incubated with Eu labeled anti-H3K36me2 antibody (abcam #ab ab9049) and d2 labeled anti-H3 antibody (abcam #ab1791) for 1 hour at room temperature. A Eu labeled anti-H3 antibody (CISBIO #64CUS000) was used for loading control. The abundancy of H3K36me2 or total H3 was measured by fluorescence signal on Perkin Elmer Envison machine.

[3] = system: cellular H3K36me2 level in multiple myeloma cell line KMS11 (t(4;14)+); test: H3K36me2 cellular ELISA assay in KMS11-Par line; assay type: cell-based; details: Homo sapiens, KMS-11, ELISA, read-out: H3K36me2 ELISA in KMS11-Par
Procedure, shortened: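 KMS11 cells were seeded a day ahead at 1,250 per well in Opti-MEM with B-27/N2, then treated with compound for 72 h. Histones were acid-extracted with 0.4M HCl, and H3K36me2 and total H3 were read by chemiluminescent ELISA. Viability was checked with CellTiter-Glo on a parallel plate in maintenance media.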

[4] = biological target: NSD2 [1-1365] (Homo sapiens (Human), UniProt O96028); test: LC-MS/MS-based NSD2 enzymatic assay (SAH production); assay type: biochemical; details: read-out: NSD2 IC50
Chain of NSD2 [1-1365] (O96028 whole entry): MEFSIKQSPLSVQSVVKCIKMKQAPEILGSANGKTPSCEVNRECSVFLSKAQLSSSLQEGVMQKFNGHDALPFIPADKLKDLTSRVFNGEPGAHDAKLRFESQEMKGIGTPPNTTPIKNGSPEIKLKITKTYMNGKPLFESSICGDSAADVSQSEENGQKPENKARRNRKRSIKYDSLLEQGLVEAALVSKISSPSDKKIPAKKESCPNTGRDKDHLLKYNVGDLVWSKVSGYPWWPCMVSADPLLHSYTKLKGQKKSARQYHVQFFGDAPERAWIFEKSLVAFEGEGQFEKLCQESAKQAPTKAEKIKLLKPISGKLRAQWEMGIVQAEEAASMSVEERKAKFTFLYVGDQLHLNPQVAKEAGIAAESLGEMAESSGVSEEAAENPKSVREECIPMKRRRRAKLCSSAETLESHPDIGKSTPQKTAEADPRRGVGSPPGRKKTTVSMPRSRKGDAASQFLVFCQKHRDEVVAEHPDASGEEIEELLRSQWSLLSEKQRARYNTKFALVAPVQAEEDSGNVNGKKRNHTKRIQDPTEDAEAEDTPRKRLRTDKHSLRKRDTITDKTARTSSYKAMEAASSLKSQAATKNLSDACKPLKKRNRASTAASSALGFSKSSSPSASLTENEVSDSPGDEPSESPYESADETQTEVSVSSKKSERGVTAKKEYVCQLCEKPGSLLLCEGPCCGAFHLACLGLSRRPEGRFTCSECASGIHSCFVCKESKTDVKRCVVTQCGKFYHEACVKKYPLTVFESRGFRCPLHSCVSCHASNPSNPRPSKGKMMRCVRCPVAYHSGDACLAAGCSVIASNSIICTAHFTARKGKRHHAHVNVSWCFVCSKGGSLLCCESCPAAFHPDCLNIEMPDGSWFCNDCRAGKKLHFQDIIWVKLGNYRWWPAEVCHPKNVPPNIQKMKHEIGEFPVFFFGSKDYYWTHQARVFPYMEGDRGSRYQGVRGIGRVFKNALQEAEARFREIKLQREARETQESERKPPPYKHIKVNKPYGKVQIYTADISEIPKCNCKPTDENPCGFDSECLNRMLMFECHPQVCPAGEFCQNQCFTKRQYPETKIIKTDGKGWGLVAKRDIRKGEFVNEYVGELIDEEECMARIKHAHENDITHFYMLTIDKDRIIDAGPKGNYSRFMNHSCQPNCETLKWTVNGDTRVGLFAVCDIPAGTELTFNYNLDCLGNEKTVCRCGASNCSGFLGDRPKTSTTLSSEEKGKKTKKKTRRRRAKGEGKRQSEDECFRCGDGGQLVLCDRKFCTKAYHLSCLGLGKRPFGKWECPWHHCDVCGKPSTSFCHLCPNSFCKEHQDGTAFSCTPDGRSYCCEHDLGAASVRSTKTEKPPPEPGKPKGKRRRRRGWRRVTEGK
Procedure, shortened: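 Full-length NSD2 [1-1365] (8 nM final) with 1 μM SAM and 400 nM mouse-liver nucleosome in Tris pH 8.0 buffer; inhibitor preincubated 20 min with enzyme/SAM before nucleosome addition. Reaction 90 min at room temperature, TFA-quenched; SAH quantified by LC-MS/MS against d4-SAH internal standard and SAH standard curve.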

[5] = KMS11-Par line (t(4;14)+), 72 hours treatment
[6] = NSD2 biochemical activity, class symbols

IC50 [2] [µM] | IC50 ([3]; KMS11-Par line, 72 hours) [µM] | IC50 [4] [µM] | Structure (SMILES) | IC50 [1] [µM] | IC50 ([2]; cellular H3K36me2 level) [µM] | IC50 [3, 5] [µM] | IC50 [4, 6] [µM]
– | – | – | Nc1ncnc2c1ncn2Cc1cc(-c2ccc(F)c(F)c2)ncc1N1CCC[C@](N)(CC(F)F)C1 [Example 47, (S)-9-((5-(3-amino-3-(2,2-difluoroethyl)piperidin-1-yl)-2-(3,4-difluorophenyl)pyridin-4-yl)methyl)-9H-purin-6-amine] | 0.377 | 1.18 | 1.54 | 0.01 to 1
– | – | – | COc1ccc(-c2cc(Cn3cnc4c(N)ncnc43)c(N3CCC[C@](N)(COC(F)F)C3)cn2)cc1F [Example 42, (R)-9-((5-(3-amino-3-((difluoromethoxy)methyl)piperidin-1-yl)-2-(3-fluoro-4-methoxyphenyl)pyridin-4-yl)methyl)-9H-purin-6-amine] | 0.789 | 1.23 | 10.7 | 0.01 to 1
– | – | – | CO[C@@H](C)[C@@]1(N)CCCN(c2cnc(-c3ccc(F)c(F)c3)cc2Cn2cnc3c(N)ncnc32)C1 [Example 95, 9-((5-((R)-3-amino-3-((S)-1-methoxyethyl)piperidin-1-yl)-2-(3,4-difluorophenyl)pyridin-4-yl)methyl)-9H-purin-6-amine] | 1.65 | 1.82 | 3.03 | 0.01 to 1
– | – | – | Nc1ncnc2c1ncn2Cc1cc(-c2ccc(F)c(F)c2)ncc1N1CCC[C@](N)(Cc2ncco2)C1 [Example 52, (S)-9-((5-(3-amino-3-(oxazol-2-ylmethyl)piperidin-1-yl)-2-(3,4-difluorophenyl)pyridin-4-yl)methyl)-9H-purin-6-amine] | 0.541 | 1.2 | 1.32 | 0.001 to 0.01
– | – | – | COc1ccc(-c2cc(Cn3cnc4c(N)ncnc43)c(N3CCC[C@](N)([C@@H](C)OC)C3)cn2)cc1F [Example 94, 9-((5-((R)-3-amino-3-((R)-1-methoxyethyl)piperidin-1-yl)-2-(3-fluoro-4-methoxyphenyl)pyridin-4-yl)methyl)-9H-purin-6-amine] | 1.09 | 3.04 | 1.2 | 0.01 to 1
– | – | – | Nc1ncnc2c1ncn2Cc1cc(-c2ccc(F)c(F)c2)ncc1N1CCC[C@](N)(COC(F)F)C1 [Example 41, (R)-9-((5-(3-amino-3-((difluoromethoxy)methyl)piperidin-1-yl)-2-(3,4-difluorophenyl)pyridin-4-yl)methyl)-9H-purin-6-amine] | – | 1.09 | 2.31 | 0.01 to 1
– | – | – | COc1ccc(-c2cc(Cn3cnc4c(N)ncnc43)c(N3CCC[C@](N)(CC(F)F)C3)cn2)cc1F [Example 61, (S)-9-((5-(3-amino-3-(2,2-difluoroethyl)piperidin-1-yl)-2-(3-fluoro-4-methoxyphenyl)pyridin-4-yl)methyl)-9H-purin-6-amine] | 0.643 | 1.42 | – | 0.01 to 1
2.33 | 1.86 | 0.01 to 1 | COc1ccc(-c2cc(Cn3cnc4c(N)ncnc43)c(N3CCCC(N)(C(C)F)C3)cn2)cc1F (centres unmarked) [Example 295, 9-((5-(3-amino-3-(1-fluoroethyl)piperidin-1-yl)-2-(3-fluoro-4-methoxyphenyl)pyridin-4-yl)methyl)-9H-purin-6-amine] | – | – | – | –
– | – | – | Nc1ncnc2c1ncn2Cc1cc(-c2ccc(F)c(F)c2)ncc1N1CCC[C@](N)(Cc2ccccn2)C1 [Example 54, (S)-9-((5-(3-amino-3-(pyridin-2-ylmethyl)piperidin-1-yl)-2-(3,4-difluorophenyl)pyridin-4-yl)methyl)-9H-purin-6-amine] | – | 0.45 | 0.78 | 0.001 to 0.01
– | – | – | COc1ccc(-c2cc(Cn3cnc4c(N)ncnc43)c(N3CC[C@@H](F)[C@@H](N)C3)cn2)cc1F [Example 5, 9-((5-((3S,4R)-3-amino-4-fluoropiperidin-1-yl)-2-(3-fluoro-4-methoxyphenyl)pyridin-4-yl)methyl)-9H-purin-6-amine] | 1.77 | 6.46 | – | 0.01 to 1
